Among the test systems are HL-60; UO-31; OVCAR-8; A549; SK-MEL-2; SK-MEL-5; OVCAR-4; LOX IMVI; NCI-H23; IGROV-1; CAKI-1; EKVX; COLO 205; K562; SW-620; NCI/ADR-RES; M14; SNB-75; 786-0.
What all share (test): NCI-60 cell line screen, 48 h

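Step 1: Grow cells in 96-well plates. Step 2: Expose to compound for 48 hours at 5 concentrations. Step 3: Interpolate endpoints linearly; if unreached, use highest concentration. At the GI50, growth is halved.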 Active and inactive are the calls of the source. Rule as the data show it: active = GI50 up to about 1.1 µM and inactive = higher.

On to `COc1cc(N/N=C/C#N)cc(OC)c1OC`, for which the GI50 in the experiment on HL-60 was 2.12 µM (inactive); in the experiment with UO-31 it was > 10 µM (inactive); in the experiment on OVCAR-8 it was > 10 µM (inactive); in the experiment with A549 it was > 10 µM (inactive); with SK-MEL-2 it was > 10 µM (inactive); with SK-MEL-5, > 10 µM (inactive). The GI50 was > 10 µM (inactive) in the experiment on OVCAR-4; 1.54 µM (inactive) with LOX IMVI; 4.34 µM (inactive) in the experiment with NCI-H23; > 10 µM (inactive) in the experiment on IGROV-1; 4.07 µM (inactive) with CAKI-1; > 10 µM (inactive) in the experiment with EKVX. For the same molecule, the GI50 in the experiment on COLO 205 is 4.86 µM (inactive); with K562, 2.44 µM (inactive); in the experiment on SW-620 it was 8.28 µM (inactive); in the experiment on NCI/ADR-RES, > 10 µM (inactive); in the experiment on M14, > 10 µM (inactive); in the experiment with SNB-75, 9.16 µM (inactive).

Consider `COC(=O)CC1(CNC(=O)OCc2ccccc2)OCCO1`, for which the GI50 in the experiment on HL-60, with UO-31, in the experiment on OVCAR-8, in the experiment on 786-0, in the experiment with A549 and in the experiment with SK-MEL-2 was > 100 µM (inactive) each time. For the same molecule, the GI50 in the experiment with SK-MEL-5, in the experiment on OVCAR-4, with LOX IMVI, with NCI-H23, in the experiment with IGROV-1 and in the experiment on CAKI-1 was > 100 µM (inactive) in each case. The GI50 in the experiment on EKVX, with COLO 205, in the experiment with K562, in the experiment with SW-620, in the experiment with NCI/ADR-RES and in the experiment with M14 was > 100 µM (inactive) throughout. In addition, the GI50 in the experiment with SNB-75 is > 100 µM (inactive).

For `COC(=O)c1ccc2c(c1)CCN2C(=O)c1cc2c(cc1Br)OCO2`, the GI50 in the experiment on HL-60 was 0.198 µM (active); in the experiment with UO-31, 2.01 µM (inactive); with OVCAR-8, 2.11 µM (inactive); in the experiment with 786-0 it was 0.74 µM (active); with A549 it was 1.74 µM (inactive); in the experiment with SK-MEL-2, 0.723 µM (active). In addition, the GI50 is 0.167 µM (active) with SK-MEL-5; 1.54 µM (inactive) in the experiment with OVCAR-4; 3.11 µM (inactive) in the experiment on LOX IMVI; 1.44 µM (inactive) in the experiment on NCI-H23; 0.614 µM (active) in the experiment on IGROV-1; 4.7 µM (inactive) in the experiment with CAKI-1. Also, the GI50 in the experiment on EKVX was 4.66 µM (inactive); in the experiment with COLO 205, 0.406 µM (active); with K562, 0.19 µM (active); with SW-620 it was 0.822 µM (active); in the experiment on NCI/ADR-RES it was 0.342 µM (active); with M14, 0.276 µM (active). Besides, in the experiment on SNB-75, the GI50 was 0.484 µM (active).

For `N#Cc1cc2c(cc1C#N)/C(=N\c1cccc(N)n1)N/C2=N\c1cccc(N)n1`, the GI50 was 19.1 µM (inactive) in the experiment on HL-60; 15.7 µM (inactive) in the experiment on UO-31; 23.6 µM (inactive) with OVCAR-8; 12.9 µM (inactive) with 786-0; 40.8 µM (inactive) in the experiment on A549; 21.6 µM (inactive) in the experiment with SK-MEL-2. Besides, the GI50 in the experiment with SK-MEL-5 is 7.16 µM (inactive); in the experiment on LOX IMVI it was 18.8 µM (inactive); in the experiment with NCI-H23, 16.1 µM (inactive); in the experiment with IGROV-1, 20.7 µM (inactive); with CAKI-1 it was 15.8 µM (inactive); with EKVX, > 100 µM (inactive). In addition, the GI50 is 15 µM (inactive) in the experiment on COLO 205; 13.4 µM (inactive) in the experiment on K562; 11.4 µM (inactive) with SW-620; 19.2 µM (inactive) with NCI/ADR-RES; 17.5 µM (inactive) in the experiment on M14; 15.6 µM (inactive) in the experiment on SNB-75.

With `COc1ccc2cc(/C=N/NC(=O)Nc3ccccc3)ccc2c1`, the GI50 in the experiment with HL-60, in the experiment with UO-31, in the experiment on OVCAR-8, with SK-MEL-2, in the experiment with SK-MEL-5 and with OVCAR-4 was > 100 µM (inactive) throughout. The GI50 with LOX IMVI, with NCI-H23, with IGROV-1, in the experiment on CAKI-1, in the experiment with COLO 205 and in the experiment on K562 was > 100 µM (inactive) in each case. The GI50 in the experiment with SW-620, with NCI/ADR-RES, in the experiment with M14 and with SNB-75 was > 100 µM (inactive) each time.

For `O=c1cc(N2CCCC2)[nH]c(=O)n1-c1cccc(C(F)(F)F)c1`, the GI50 with HL-60, with OVCAR-8, in the experiment on 786-0, in the experiment on SK-MEL-2, with OVCAR-4 and with LOX IMVI was > 100 µM (inactive) each time. Besides, the GI50 in the experiment on NCI-H23, in the experiment on IGROV-1, in the experiment with CAKI-1, with EKVX, in the experiment with COLO 205 and with K562 was > 100 µM (inactive) in each case. The GI50 in the experiment with SW-620, with NCI/ADR-RES, with M14 and in the experiment on SNB-75 was > 100 µM (inactive) each time.

With `Cc1ccc(S(=O)(=O)N/N=C/c2c(O)ccc3ccccc23)cc1`, the GI50 is 43.4 µM (inactive) with HL-60; 53.7 µM (inactive) with UO-31; 30.4 µM (inactive) in the experiment on OVCAR-8; 30.1 µM (inactive) in the experiment on 786-0; 34 µM (inactive) with A549; 20.8 µM (inactive) with SK-MEL-2. The GI50 with SK-MEL-5 is 31.8 µM (inactive); in the experiment on OVCAR-4, 28.8 µM (inactive); in the experiment on LOX IMVI, 32.1 µM (inactive); in the experiment on NCI-H23, 30.5 µM (inactive); in the experiment on IGROV-1 it was 6.68 µM (inactive); in the experiment with CAKI-1 it was 17.9 µM (inactive). Besides, the GI50 in the experiment on EKVX is 32.1 µM (inactive); in the experiment on COLO 205, 19.5 µM (inactive); in the experiment on K562, 18.3 µM (inactive); with SW-620 it was 30.3 µM (inactive); in the experiment with NCI/ADR-RES it was 27.7 µM (inactive); in the experiment with M14, 22.1 µM (inactive). The GI50 in the experiment with SNB-75 is 20.7 µM (inactive).

For the molecule `O=C(O)c1nc2ccc(C(F)(F)F)cc2[nH]c1=O`, the GI50 in the experiment on HL-60, with UO-31, in the experiment with OVCAR-8, with A549, in the experiment with SK-MEL-2 and with SK-MEL-5 was > 100 µM (inactive) in each case. Also, the GI50 in the experiment on OVCAR-4, with LOX IMVI, in the experiment with NCI-H23, with IGROV-1, with CAKI-1 and in the experiment on EKVX was > 100 µM (inactive) throughout. Moreover, the GI50 in the experiment with COLO 205, in the experiment on K562, in the experiment on SW-620, with NCI/ADR-RES and with M14 was > 100 µM (inactive) each time.

Take `CCN(CC)c1ccc2c(c1)Oc1ccc(N(C(C)=O)c3ccccc3)cc1C21OC(=O)c2ccccc21` (stereo not drawn): the GI50 in the experiment on HL-60 was 8.53 µM (inactive); in the experiment on UO-31, 23.7 µM (inactive); with OVCAR-8, > 75.5 µM (inactive); in the experiment on 786-0, > 100 µM (inactive); with A549, 37.8 µM (inactive); in the experiment on SK-MEL-2 it was > 100 µM (inactive). The GI50 in the experiment on SK-MEL-5 is 24.2 µM (inactive); in the experiment with OVCAR-4, > 82.8 µM (inactive); in the experiment with LOX IMVI, > 100 µM (inactive); in the experiment with NCI-H23, > 68.4 µM (inactive); in the experiment on IGROV-1, > 100 µM (inactive); in the experiment with CAKI-1, > 100 µM (inactive). The GI50 in the experiment on EKVX is 84.7 µM (inactive); with COLO 205, > 64.1 µM (inactive); in the experiment with K562, 12.6 µM (inactive); with SW-620, 47.1 µM (inactive); in the experiment with NCI/ADR-RES, > 61.8 µM (inactive); with M14, 40.6 µM (inactive). For the same molecule, the GI50 with SNB-75 is > 59.7 µM (inactive).

Take `CCCC(=O)Nc1cc(/C=C/C(=O)N2CC(CCl)c3c2cc(OCc2ccccc2)c2[nH]cc(C)c32)n(C)c1` (stereo not drawn): the GI50 in the experiment on HL-60 was 0.0259 µM (active); in the experiment with UO-31, 0.0493 µM (active); with OVCAR-8 it was 0.0221 µM (active); in the experiment with 786-0 it was 0.0365 µM (active); in the experiment with A549, 0.0219 µM (active); in the experiment with SK-MEL-2 it was 0.074 µM (active). The GI50 is 0.02 µM (active) with SK-MEL-5; 0.069 µM (active) in the experiment with OVCAR-4; 0.0817 µM (active) in the experiment on LOX IMVI; 0.0139 µM (active) in the experiment with NCI-H23; 0.0211 µM (active) with IGROV-1; 0.0295 µM (active) in the experiment on CAKI-1. In addition, the GI50 with EKVX is 0.136 µM (active); in the experiment with COLO 205 it was 0.188 µM (active); with K562, 0.0373 µM (active); with SW-620 it was 0.0597 µM (active); in the experiment with NCI/ADR-RES, 0.0238 µM (active); in the experiment with M14 it was 0.142 µM (active). Moreover, the GI50 in the experiment on SNB-75 was 0.0675 µM (active).

Turning to `CC1CNC(NS(=O)(=O)c2cc(C(=O)Nc3ccc(F)cc3)c(Cl)cc2S)=NN1` (stereo not drawn), the GI50 with HL-60 is > 100 µM (inactive); with UO-31, > 100 µM (inactive); in the experiment on OVCAR-8, 73.8 µM (inactive); with 786-0 it was > 100 µM (inactive); with A549, 49.4 µM (inactive); in the experiment with SK-MEL-2 it was 28.3 µM (inactive). The GI50 in the experiment on SK-MEL-5 was 26.2 µM (inactive); with OVCAR-4, > 100 µM (inactive); in the experiment with LOX IMVI, 54.5 µM (inactive); with NCI-H23 it was 50.4 µM (inactive); in the experiment on IGROV-1, 71 µM (inactive); with CAKI-1, > 100 µM (inactive). Moreover, the GI50 with EKVX was > 100 µM (inactive); in the experiment on COLO 205, 62.4 µM (inactive); with K562, 32.8 µM (inactive); with SW-620, 45.3 µM (inactive); in the experiment on NCI/ADR-RES, > 100 µM (inactive); with M14 it was 42.3 µM (inactive).
